Reference: publication PMC5854716, “Synthesis, molecular docking, ctDNA interaction, DFT calculation and evaluation of antiproliferative and anti-Toxoplasma gondii activities of 2,4-diaminotriazine-thiazole derivatives” (Medicinal Chemistry Research, 2018)
In brackets after ≈: the same amount, converted by molar mass.

Key:
[1] = system: biphenotypic B myelomonocytic leukemia MV4-11 cells; test: In vitro antiproliferative assay (MTT), MV4-11; format: cell-based, human; conditions: 72 h exposure, mean ± SD
Experimental: Biphenotypic B myelomonocytic leukemia MV4-11, human lung carcinoma A549, human breast carcinoma MCF-7, and normal mouse fibroblast BALB/3T3 cells were obtained from American Type Culture Collection (Rockville, Maryland, USA). All the cell lines are being maintained at the Institute of Immunology and Experimental Therapy, Wroclaw, Poland. MV4-11 cells were cultured in RPMI 1640 medium (Gibco, UK) with 2 mM L-glutamine adjusted to contain 1.0 mM sodium pyruvate, and 10% fetal bovine serum (FBS) (all from Sigma-Aldrich, Germany). A549 cells were cultured in RPMI 1640+ Opti-MEM (1:1) (both from Gibco, UK), MCF-7 cells in Eagle medium (IIET, Wroclaw, Poland), BALB/3T3 in Dulbecco medium (IIET, Poland) supplemented with 2 mM L-glutamine and 1.0 mM sodium pyruvate, 10% fetal bovine serum (all from Sigma-Aldrich, Germany). The MCF-7 cell culture was supplemented with 0.8 mg/l of insulin (Sigma-Aldrich, Germany). All culture media were supplemented with 100 units/ml penicillin, and 100 µg/ml streptomycin (both from Polfa Tarchomin S.A., Poland). All cell lines were grown at 37 °C with 5% CO2 humidified atmosphere (Łączkowski et al. [2014], [2016a]).
Prior to usage, the compounds were dissolved in DMSO and culture medium (1: 9) to the concentration of 1 mg/ml, and subsequently diluted in culture medium to reach the required concentrations (0.1, 1, 10, and 100 µg/ml) (Łączkowski et al. [2014], [2016a]).
Twenty-four hours prior to the addition of the tested compounds, the cells counted using Burker hemocytometer were plated in 96-well plates (Sarstedt, Germany) at a density of 1 × 10^4 cells per well. The assay was performed after 72 h of exposure to varying concentrations of the tested agents. The in vitro cytotoxic effect of all agents was examined using the SRB assay for adherent cells (A549, MCF-7, and BALB/3T3) or MTT assay for leukemia cells (MV4-11) as described previously. The results were calculated as an inhibitory concentration 50 (IC50)—the concentration of tested agent which inhibits proliferation of 50% of the cancer cell population. Each compound in each concentration was tested in triplicate in a single experiment, which was repeated 3–7 times (Rubinstein et al. [1990]; Bramson et al. [1995]).
Twenty microliter of MTT solution (MTT: 3-(4,5-dimethylthiazol-2-yl)-2,5-diphenyltetrazolium bromide, stock solution: 5 mg/ml) was added to each well and incubated for 4 h. After the incubation time was complete, 80 µl of the lysis mixture was added to each well (lysis mixture: 225 ml dimethylformamide, 67.5 g sodium dodecyl sulfate and 275 ml of distilled water). The optical densities of the samples were read after 24 h on a Synergy H4 (BioTek Instruments USA) photometer microtiter plate reader at 570 nm (Sidoryk et al. [2012]). All of chemicals were obtained from Sigma-Aldrich, Germany.

[2] = system: human breast carcinoma MCF-7 cells; test: In vitro antiproliferative assay (SRB), MCF-7; format: cell-based; conditions: 72 h exposure, mean ± SD
Experimental: (§1) Biphenotypic B myelomonocytic leukemia MV4-11, human lung carcinoma A549, human breast carcinoma MCF-7, and normal mouse fibroblast BALB/3T3 cells were obtained from American Type Culture Collection (Rockville, Maryland, USA). All the cell lines are being maintained at the Institute of Immunology and Experimental Therapy, Wroclaw, Poland. MV4-11 cells were cultured in RPMI 1640 medium (Gibco, UK) with 2 mM L-glutamine adjusted to contain 1.0 mM sodium pyruvate, and 10% fetal bovine serum (FBS) (all from Sigma-Aldrich, Germany). A549 cells were cultured in RPMI 1640+ Opti-MEM (1:1) (both from Gibco, UK), MCF-7 cells in Eagle medium (IIET, Wroclaw, Poland), BALB/3T3 in Dulbecco medium (IIET, Poland) supplemented with 2 mM L-glutamine and 1.0 mM sodium pyruvate, 10% fetal bovine serum (all from Sigma-Aldrich, Germany). The MCF-7 cell culture was supplemented with 0.8 mg/l of insulin (Sigma-Aldrich, Germany). All culture media were supplemented with 100 units/ml penicillin, and 100 µg/ml streptomycin (both from Polfa Tarchomin S.A., Poland). All cell lines were grown at 37 °C with 5% CO2 humidified atmosphere (Łączkowski et al. [2014], [2016a]). Prior to usage, the compounds were dissolved in DMSO and culture medium (1: 9) to the concentration of 1 mg/ml, and subsequently diluted in culture medium to reach the required concentrations (0.1, 1, 10, and 100 µg/ml) (Łączkowski et al. [2014], [2016a]). Twenty-four hours prior to the addition of the tested compounds, the cells counted using Burker hemocytometer were plated in 96-well plates (Sarstedt, Germany) at a density of 1 × 10^4 cells per well. The assay was performed after 72 h of exposure to varying concentrations of the tested agents. The in vitro cytotoxic effect of all agents was examined using the SRB assay for adherent cells (A549, MCF-7, and BALB/3T3) or MTT assay for leukemia cells (MV4-11) as described previously. […] Each compound in each concentration was tested in triplicate in a single experiment, which was repeated 3–7 times (Rubinstein et al. [1990]; Bramson et al. [1995]). Cells were attached to the bottom of plastic wells by fixing them with cold 50% TCA (trichloroacetic acid, POCH, Gliwice, Poland) on top of the culture medium in each well. The plates were incubated at 4 °C for 1 h and then washed five times with tap water. The cellular material fixed with TCA was stained with 0.1% sulforhodamine B (SRB, Sigma-Aldrich, Germany) and dissolved in 1% acetic acid (POCH, Gliwice, Poland) for 30 min. Unbound dye was removed by rinsing (4×) in 1% acetic acid. The protein-bound dye was extracted with 10 mM unbuffered Tris base (Sigma-Aldrich, Germany) for determination of the optical density (λ = 540 nm) in a computer-interfaced, 96-well Synergy H4 (BioTek Instruments USA) photometer microtiter plate reader (Sidoryk et al. [2012]).

[3] = system: human lung carcinoma A549 cells; test: In vitro antiproliferative assay (SRB), A549; format: cell-based; conditions: 72 h exposure, mean ± SD
Experimental: as §1

[4] = system: normal mouse fibroblast Balb/3T3 cells; test: In vitro cytotoxicity (SRB), Balb/3T3; format: cell-based; conditions: 72 h exposure, mean ± SD
Experimental: as §1

[5] = system: Toxoplasma gondii BK strain; test: T. gondii tachyzoite intracellular proliferation in VERO host cells ([3H]uracil incorporation); format: cell-based; conditions: Toxoplasma gondii
Experimental: The epithelial cell line VERO (ATCC-Catalog No. CCL-81^TM), derived from the kidney of the African green monkey, Cercopithecus aethiops and fibroblast cell line L-929 (ATCC-Catalog No. CCL-1^TM), derived from Mus musculus (http://www.atcc.org) were grown in Iscoves’s Modified Dulbecco’s Medium (IMDM) supplemented with 10% (v/v) fetal bovine serum (FBS), plus 2 mM L-glutamine, 100 U/ml penicillin, 100.00 µg/ml streptomycin, 5 × 10^−5 M 2-mercaptoethanol and maintained at 37 °C in a 10% CO2 atmosphere. Subcultures were performed via enzymatic cell dissociation in 0.25% trypsin. After dissociation, the cells were placed in culture medium at 4 °C with 10% FBS to inhibit the action of trypsin. The isolated cells were centrifuged for 10 min at 1000×g at 4 °C, and the cells were grown in new bottles. This procedure was repeated when cells reached a confluence of ~90%. All commercial reactants and solvents were purchased from either Sigma-Aldrich Laborchemikalien GmbH (Dzitko et al. [2014]).
Suspensions of the compounds 4a–l were freshly prepared (5 mg/ml DMSO) before the cells were exposed, and diluted to appropriate concentrations; 0.9, 1.8, 3.9, 7.8, 15.6, 31.2, 62.5, and 125.00 μg/ml with the culture medium. Cells treated with 2.5% DMSO-solvent served as a control in each experiment.
Stock solutions of the Sulfadiazine (100 mg/ml 1 N NaOH; Catalog No. S8626) was freshly prepared before each experiment, and diluted to appropriate concentrations: 5.00, 25.00, 50.00, 125.00, 250.00, 500.00, 1250.00, and 2500.00 μg/ml, respectively in IMDM complete medium. All commercial reactants and solvents were purchased from either Sigma-Aldrich Laborchemikalien GmbH.
Tachyzoites of T. gondii, BK strain, were maintained in female C57BL/6 (H-2^b) and BALB/c (H-2^d) mice (with genetically determined high and low susceptibility, respectively to Toxoplasma infection) via serial intraperitoneal inoculation of 10^5–10^6 parasites per mouse in phosphate-buffered saline (PBS). After 48 to 96 h, parasites were harvested via peritoneal lavage using PBS, pH 7.2, and centrifuged at 200×g for 5 min to remove blood cells and cell debris. The supernatant containing tachyzoites was collected and centrifuged again at 2000×g for 15 min. The final pellet was resuspended in IMDM, quantified in a Burker’s chamber, and used in experimental assays. Inbred mice were kept under standard laboratory conventional conditions. All experimental procedures were conducted according to guidelines of the 9. Local Ethics Commission for Experiments on Animals in Lodz.
VERO, (2 × 10^4 cells/100 µl/well) were grown in complete medium (IMDM) on 96-well plates. After 24 h incubation, a medium was removed and then T. gondii […] tachyzoites, suspended in culture medium supplemented with 0.9–125.00 μg/ml diaminotriazines 4a–l and as a control-sulfadiazine (5.0–2500.0 μg/ml), were added (2 × 10^5 tachyzoites/200 µl/well) to the cell monolayers. After subsequent 48 h incubation 1 µCi/well of [^3H] uracil (Moravek Biochemicals Inc., Brea, CA, USA) was applied to each microculture for further 18–20 h. The amount of the isotope incorporated into the parasite nucleic acid pool, corresponding to the parasite growth, was measured by liquid scintillation counting with 1450 Microbeta Plus Liquid Scintillation Counter (Wallac Oy, Turku, Finland). The cpms of host cells alone (below 250/microculture) were subtracted from cpms of T. gondii infected microcultures (Dzitko et al. [2014]).

| SMILES | IC50 MV4-11 [1] | IC50 MCF-7 [2] | IC50 A549 [3] | IC50 Balb/3T3 [4] | activity at 5 µg/mL ([5]; 5.00 µg/ml, VERO host cells) | activity at 25 µg/mL ([5]; 25.00 µg/ml, VERO host cells) | activity at 50 µg/mL ([5]; 50.00 µg/ml, VERO host cells) | activity at 125 µg/mL ([5]; 125.00 µg/ml, VERO host cells (Table 3)) | activity at 250 µg/mL ([5]; 250.00 µg/ml, VERO host cells) | activity at 500 µg/mL ([5]; 500.00 µg/ml, VERO host cells) | activity at 1250 µg/mL ([5]; 1250.00 µg/ml, VERO host cells) | activity at 2500 µg/mL ([5]; 2500.00 µg/ml, VERO host cells) | IC50 ([5]; VERO host cells, GraphPad Prism curves, read-out: IC50 (50% inhibition of T. gondii proliferation in vitro)) |
| --- | --- | --- | --- | --- | --- | --- | --- | --- | --- | --- | --- | --- | --- |
| N.N.[Cl][Pt][Cl] [cis-platin, reference compound] | 0.22 ± 0.11 µg/mL | 2.33 ± 0.465 µg/mL | 2.69 ± 1.119 µg/mL | 2.55 ± 0.588 µg/mL | – | – | – | – | – | – | – | – | – |
| Nc1ccc(S(=O)(=O)Nc2ncccn2)cc1 [Sulfadiazine, reference compound] | – | – | – | – | 92% | 80.5% | 70.7% | 55.2% | 52.8% | 41.6% | 39.7% | 39.6% | 1020 µg/mL (≈ 4.09 mM) |
